Here are results for 14 compounds from US8362000B2, “Azetidinyl diamides as monoacylglycerol lipase inhibitors” (Janssen Pharmaceutica NV, priority 2009, dated 2013).

Test [1] has as its target T1, MGL (Rattus norvegicus, UniProt Q8R431).
T1 construct: one g rat brain was homogenized using a Polytron homogenizer; from tissue; host or cells: rat brain homogenate
T1 sequence (Q8R431 1-303): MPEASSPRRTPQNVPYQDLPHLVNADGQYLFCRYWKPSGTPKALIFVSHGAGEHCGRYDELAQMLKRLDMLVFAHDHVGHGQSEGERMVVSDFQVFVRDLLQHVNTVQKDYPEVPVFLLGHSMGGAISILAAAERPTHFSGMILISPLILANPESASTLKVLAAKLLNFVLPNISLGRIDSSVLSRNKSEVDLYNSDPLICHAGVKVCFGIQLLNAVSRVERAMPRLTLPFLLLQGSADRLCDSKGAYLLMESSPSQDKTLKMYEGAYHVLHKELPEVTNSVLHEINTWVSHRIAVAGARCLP
In words: 2-AG accumulation assay in rat brain homogenate. The class given is biochemical. The following applies: rat brain homogenate, 2-AG accumulation as percent of vehicle; for 2-AG accumulation, % of vehicle control at 0.01 µM: compound 0.01 μM, read-out: Rat Brain 2AG % VehCntrl (%) @ 0.01 μM; for 2-AG accumulation, % of vehicle control at 0.1 µM: compound 0.1 μM, read-out: Rat Brain 2AG % VehCntrl (%) @ 0.1 μM; for 2-AG accumulation, % of vehicle control at 1 µM: read-out: Rat Brain 2AG % VehCntrl (%) @ 1 μM; for 2-AG accumulation, % of vehicle control at 10 µM: compound 10 μM, read-out: Rat Brain 2AG % VehCntrl (%) @ 10 μM.

The target in test [2] is T2, mutant MGL (Homo sapiens, UniProt Q99685, L169S/L176S).
T2 sequence (Q99685 1-303 L169S/L176S): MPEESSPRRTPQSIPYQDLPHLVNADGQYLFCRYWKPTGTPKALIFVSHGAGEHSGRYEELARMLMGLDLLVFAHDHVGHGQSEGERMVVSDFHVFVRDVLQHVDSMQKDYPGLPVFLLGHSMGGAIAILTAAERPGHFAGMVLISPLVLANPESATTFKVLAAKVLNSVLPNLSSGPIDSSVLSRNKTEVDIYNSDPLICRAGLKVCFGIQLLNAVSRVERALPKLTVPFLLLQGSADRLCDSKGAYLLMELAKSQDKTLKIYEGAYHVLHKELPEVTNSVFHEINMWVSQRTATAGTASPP
In words: MGL ThermoFluor assay - mutant. The class given is binding. Background: In DSF a fluorescence change marks the thermal transition of the protein.

Test [3] has as its system CFA-induced paw radiant heat hypersensitivity. The test is described as follows: CFA-induced paw radiant heat hypersensitivity. Format: in vivo, rat. The following applies: 30 mg/kg p.o., HPβCD, last time point 180 or 300 min; for inhibition in vivo at 30 mg/kg: Rattus norvegicus, po.
Test [4] addresses T3, purified wild type MGL (wt-MGLL 6H-11-313) (Homo sapiens, UniProt Q99685).
T3 sequence (Q99685 1-303): T2 sequence (Q99685 1-303 L169S/L176S) with S169L, S176L

Where [5] appears, read: ThermoFluor thermal stability binding assay, read-out: MGL mutant ThermoFluor Kd.
[6] abbreviates: group mean values, read-out: CFA thermal hypersensitivity Method 1: peak % reversal.
Where [7] appears, read: individual animal values, read-out: CFA thermal hypersensitivity Method 2: peak % reversal.
[8] abbreviates: ThermoFluor, compound concentration measured by qNMR, read-out: MGL mutant ThermoFluor qKd (μM) (using qNMR conc.).
Setting [9] is: ThermoFluor concentration-response, read-out: MGL mutant ThermoFluor Kd.

Substitutions are numbered along the chain they refer to. Where two headings read alike, the source gives them in different places.

Broadly, the IC50 is the concentration that gives 50% inhibition. The low end stands for higher potency, the high end for lower potency. As to `O=C(c1ccc2nc(-c3ccc(C(F)(F)F)cc3)oc2c1)N1CC(N2CCN(C(=O)c3nccs3)CC2)C1` [Cpd 314, 6-({3-[4-(1,3-Thiazol-2-ylcarbonyl)piperazin-1-yl]azetidin-1-yl}carbonyl)-2-[4-(trifluoromethyl)phenyl]-1,3-benzoxazole], in test [1], the 2-AG accumulation, % of vehicle control at 0.01 µM amounted to 175%; the 2-AG accumulation, % of vehicle control at 0.1 µM was 237%; the 2-AG accumulation, % of vehicle control at 10 µM was found to be 553%. The 2-AG accumulation, % of vehicle control at 1 µM in test [1] (compound 1 μM) amounted to 512%. Further, in test [2] (setting [5]), the Kd stood at 0.0392 µM. Further, the inhibition in vivo at 30 mg/kg in test [3] (setting [6]) was 41%. The inhibition in vivo at 30 mg/kg in test [3] (setting [7]) came to 41.2%. The IC50 in test [4] was less than 0.005 µM.
Consider `O=C(c1ccccc1)N1CCN(C2CN(C(=O)c3cc4ccc(C(F)(F)F)cc4s3)C2)CC1` [Cpd 325, 1-(Phenylcarbonyl)-4-(1-{[6-(trifluoromethyl)-1-benzothiophen-2-yl]carbonyl}azetidin-3-yl)piperazine], for which the 2-AG accumulation, % of vehicle control at 1 µM in test [1] (compound 1 μM) was determined as 478%. In test [2] (setting [5]), the Kd is 0.0927 µM. In addition, the inhibition in vivo at 30 mg/kg stood at 62.1% in test [3] (setting [6]) and 63.1% in test [3] (setting [7]). This compound gave an IC50 in test [4] of 0.0695 µM.
With `Cc1cc(-c2ccc(F)c(Cl)c2)ccc1C(=O)N1CC(N2CCN(C(=O)c3cscn3)CC2)C1` [Cpd 253, 1-{1-[(3′-Chloro-4′-fluoro-3-methylbiphenyl-4-yl)carbonyl]azetidin-3-yl}-4-(1,3-thiazol-4-ylcarbonyl)piperazine], in test [1], the 2-AG accumulation, % of vehicle control at 0.1 µM stood at 107% and the 2-AG accumulation, % of vehicle control at 10 µM is 624%. Besides, in test [1] (compound 1 μM), the 2-AG accumulation, % of vehicle control at 1 µM amounted to 319%. In test [2] (setting [5]), the Kd is 0.0215 µM. Besides, the inhibition in vivo at 30 mg/kg in test [3] (setting [6]) was 64.3%. For the same compound, in test [3] (setting [7]), the inhibition in vivo at 30 mg/kg is 87.2%. Further, it took 0.0494 µM to reach half-maximal inhibition in test [4] (IC50).
On to `O=C(c1nccs1)N1CCN(C2CN(C(=O)c3sc4cc(C(F)(F)F)ccc4c3Cl)C2)CC1` [Cpd 324, 1-(1-{[3-Chloro-6-(trifluoromethyl)-1-benzothiophen-2-yl]carbon-yl}azetidin-3-yl)-4-(1,3-thiazol-2-ylcarbonyl)piperazine], for which, in test [1], the 2-AG accumulation, % of vehicle control at 0.1 µM was 941%. In test [2] (setting [5]), the Kd was determined as 0.0004 µM. Further, the values for the inhibition in vivo at 30 mg/kg in test [3] (setting [6]) and in test [3] (setting [7]) were 48.7% and 55.8%, respectively. In addition, the IC50 in test [4] was less than 0.005 µM.
As to `O=C(c1ccc(OCc2ccccn2)c(Cl)c1)N1CC(N2CCN(C(=O)c3nccs3)CC2)C1` [Cpd 407, 1-(1-{[3-Chloro-4-(pyridine-2-ylmethoxy)phenyl]carbon-yl}azetidin-3-yl)-4-(1,3-thiazol-2-ylcarbonyl)piperazine], in test [1], the 2-AG accumulation, % of vehicle control at 0.1 µM was determined as 127% and the 2-AG accumulation, % of vehicle control at 10 µM turned out to be 743%. Besides, the 2-AG accumulation, % of vehicle control at 1 µM in test [1] (compound 1 μM) worked out at 441%. In addition, the Kd in test [2] (setting [5]) came to 0.0988 µM. For the same compound, the inhibition in vivo at 30 mg/kg in test [3] (setting [6]) came out at 1.6%. Further, the inhibition in vivo at 30 mg/kg in test [3] (setting [7]) amounted to 1.4%. Further, half-maximal inhibition in test [4] (IC50) required 0.0506 µM.
As for `O=C(c1nccs1)N1CCN(C2CN(C(=O)c3ccc(-c4cccc(C(F)(F)F)c4)cc3Cl)C2)CC1` [Cpd 250, 1-(1-{[3-Chloro-3′-(trifluoromethyl)biphenyl-4-yl]carbonyl}azetidin-3-yl)-4-(1,3-thiazol-2-ylcarbonyl)piperazine], in test [1], the 2-AG accumulation, % of vehicle control at 0.01 µM came to 180%. In addition, in test [1], the 2-AG accumulation, % of vehicle control at 0.1 µM was 472%. Moreover, the Kd in test [2] (setting [5]) amounted to 0.0017 µM. The results for the inhibition in vivo at 30 mg/kg in test [3] (setting [6]) and in test [3] (setting [7]) were 41.7% and 41.9%, respectively. The IC50 in test [4] was less than 0.005 µM.
On to `O=C(c1ccccc1)N1CCN(C2CN(C(=O)c3ccc4c(ccn4-c4ccc(F)c(F)c4)c3)C2)CC1` [Cpd 571, 1-(3,4-Difluorophenyl)-5-({3-[4-(phenylcarbonyl)piperazin-1-yl]azetidin-1-yl}carbonyl)-1H-indole], for which the 2-AG accumulation, % of vehicle control at 1 µM in test [1] (compound 1 μM) was 307%. Moreover, the Kd came out at 0.046 µM in test [2] (setting [5]) and 0.08 µM in test [2] (setting [8]). The inhibition in vivo at 30 mg/kg in test [3] (setting [6]) was found to be 133%. Besides, in test [4], half-maximal inhibition (IC50) required 0.028 µM.
As to `O=C(c1ccc2c(ccn2-c2ccc(F)c(F)c2)c1)N1CC(N2CCN(C(=O)c3cscn3)CC2)C1` [Cpd 1363, 1-(3,4-Difluorophenyl)-5-({3-[4-(1,3-thiazol-4-ylcarbonyl)piperazin-1-yl]azetidin-1-yl}carbonyl)-1H-indole], the 2-AG accumulation, % of vehicle control at 1 µM in test [1] (compound 1 μM) is 628%. In addition, the Kd in test [2] (setting [9]) is 0.014 µM. In test [3] (setting [6]), the inhibition in vivo at 30 mg/kg came to 69.7%. This compound also had an IC50 in test [4] of less than 0.005 µM.
`Cc1cc(-c2ccccc2)ccc1C(=O)N1CC(N2CCN(C(=O)c3cscn3)CC2)C1` [Cpd 488, 1-{1-[(3-Methylbiphenyl-4-yl)carbonyl]azetidin-3-yl}-4-(1,3-thiazol-4-ylcarbonyl)piperazine]: in test [1], the 2-AG accumulation, % of vehicle control at 0.1 µM was 219% and the 2-AG accumulation, % of vehicle control at 10 µM came out at 681%. In test [1] (compound 1 μM), the 2-AG accumulation, % of vehicle control at 1 µM is 248%. In test [2] (setting [5]), the Kd was 0.321 µM. Also, the inhibition in vivo at 30 mg/kg in test [3] (setting [6]) stood at 78%. Further, the inhibition in vivo at 30 mg/kg in test [3] (setting [7]) came to 85.5%. In test [4], this compound gave an IC50 of 0.382 µM.
Take `O=C(c1cscn1)N1CCN(C2CN(C(=O)c3sc4cc(C(F)(F)F)c(F)cc4c3Cl)C2)CC1` [Cpd 666]: the 2-AG accumulation, % of vehicle control at 1 µM in test [1] (compound 1 μM) came out at 359%. Also, the figures for the Kd in test [2] (setting [5]) and in test [2] (setting [8]) were 0.002 µM and 0.003 µM, respectively. Moreover, the inhibition in vivo at 30 mg/kg in test [3] (setting [6]) is -3.1%. The IC50 in test [4] is 0.013 µM.
In the case of `O=C(c1cccc(-c2cccc(F)c2)c1)N1CC(N2CCN(C(=O)c3nccs3)CC2)C1` [Cpd 1124], the 2-AG accumulation, % of vehicle control at 1 µM in test [1] (compound 1 μM) stood at 506%. Moreover, the Kd in test [2] (setting [9]) turned out to be 0.25 µM. Besides, the inhibition in vivo at 30 mg/kg in test [3] (setting [6]) stood at 88.1%. In test [4], this compound registered an IC50 of 0.019 µM.
Turning to `O=C(c1ccc(-c2cccc(C(F)(F)F)c2)c(F)c1)N1CC(N2CCN(C(=O)c3cscn3)CC2)C1` [Cpd 1070, 1-(1-{[2-Fluoro-3′-(trifluoromethyl)biphenyl-4-yl]carbonyl}azetidin-3-yl)-4-(1,3-thiazol-4-ylcarbonyl)piperazine], in test [1] (compound 1 μM), the 2-AG accumulation, % of vehicle control at 1 µM is 551%. In addition, the Kd in test [2] (setting [5]) stood at 0.006 µM. For the same compound, the inhibition in vivo at 30 mg/kg in test [3] (setting [6]) came to 25.7%; in test [3] (setting [7]), 23.1%. This compound gave an IC50 in test [4] of 0.008 µM.
For the compound `O=C(c1cc2cc(C(F)(F)F)ccc2s1)N1CC(N2CCN(C(=O)c3nccs3)CC2)C1` [Cpd 316, 1-(1,3-Thiazol-2-ylcarbonyl)-4-(1-{[5-(trifluoromethyl)-1-benzothiophen-2-yl]carbonyl}azetidin-3-yl)piperazine], in test [1], the 2-AG accumulation, % of vehicle control at 0.01 µM worked out at 243%; the 2-AG accumulation, % of vehicle control at 0.1 µM was 265%; the 2-AG accumulation, % of vehicle control at 10 µM amounted to 694%. In test [1] (compound 1 μM), the 2-AG accumulation, % of vehicle control at 1 µM came out at 760%. The Kd in test [2] (setting [5]) came out at 0.0165 µM. The inhibition in vivo at 30 mg/kg in test [3] (setting [6]) stood at 69.3%. Moreover, the inhibition in vivo at 30 mg/kg in test [3] (setting [7]) turned out to be 70.8%. For the same compound, the IC50 in test [4] was less than 0.005 µM.
As to `C/C(=C\c1ccc(Cl)cc1)c1c(C)c(C(=O)N2CC(N3CCN(C(=O)c4nccs4)CC3)C2)nn1-c1ccc(Cl)cc1Cl` [Cpd 1010], the “Rat Brain 2AG % VehCntrl (%) @ 1 μM” value in test [1] (compound 1 μM) is 1953%. Also, the Kd was determined as 0.017 µM in test [2] (MGL mutant ThermoFluor Kd, ThermoFluor concentration-response) and 0.04 µM in test [2] (MGL mutant ThermoFluor qKd (using qNMR conc.), compound concentration measured by qNMR). Besides, the “CFA thermal hypersensitivity Method 1: peak % reversal” value in test [3] (group mean values) was 23.4%. The IC50 in test [4] was less than 0.005 µM.
